In US20250340537A1, “PHARMACEUTICALLY ACTIVE COMPOUNDS, COMPOSITIONS, AND METHODS FOR MODULATING PENDRIN” (ARBORMED Co., Ltd., priority 2022, published 2025) one finds EC50 data, which are given here for 53 compounds.

The target of the experiment is T1, H723R-pendrin (Homo sapiens, UniProt O43511, H723R).
T1 construct: expressed in transfected cells; host or cells: PANC-1
T1 sequence (O43511 1-780 H723R): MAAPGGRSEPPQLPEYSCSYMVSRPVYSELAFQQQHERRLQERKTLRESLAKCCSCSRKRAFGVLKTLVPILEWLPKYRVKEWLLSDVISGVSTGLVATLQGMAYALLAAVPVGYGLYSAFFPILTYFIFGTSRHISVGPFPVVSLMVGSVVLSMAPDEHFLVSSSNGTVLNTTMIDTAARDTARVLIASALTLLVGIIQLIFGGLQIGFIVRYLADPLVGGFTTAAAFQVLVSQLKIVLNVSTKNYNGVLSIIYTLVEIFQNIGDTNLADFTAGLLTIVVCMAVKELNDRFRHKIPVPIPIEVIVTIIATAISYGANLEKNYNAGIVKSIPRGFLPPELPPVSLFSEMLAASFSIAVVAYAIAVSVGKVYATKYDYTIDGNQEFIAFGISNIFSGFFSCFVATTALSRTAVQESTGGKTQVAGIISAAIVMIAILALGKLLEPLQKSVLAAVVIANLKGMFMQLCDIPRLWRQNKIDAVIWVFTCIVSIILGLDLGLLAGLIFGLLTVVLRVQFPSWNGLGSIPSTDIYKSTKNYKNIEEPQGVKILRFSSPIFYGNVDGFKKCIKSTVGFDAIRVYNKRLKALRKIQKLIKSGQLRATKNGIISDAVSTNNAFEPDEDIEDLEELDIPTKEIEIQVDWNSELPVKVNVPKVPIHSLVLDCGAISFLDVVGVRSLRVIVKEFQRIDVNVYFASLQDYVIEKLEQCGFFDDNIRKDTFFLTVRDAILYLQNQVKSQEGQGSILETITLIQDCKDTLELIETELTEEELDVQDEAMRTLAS
Nature of the experiment: YFP fluorescence quenching assay (Cl−/I− exchange activity of pendrin). It is filed as cell-based. Particulars: PANC-1 cells stably expressing human H723R-pendrin and YFP-F46L/H148Q/I152L; compound incubation 20-24 hours; iodide influx. The text has this:
Halide sensor YFP F46L/H148Q/I152L is quenched by halide ion like Iodide. When such YFP is expressed in a cell, it expresses in the cytoplasm.
To measure H723R-PDS activity, PANC-1 cells were stably transfected with halide sensors YFP-F46L/H148Q/I152L and H723R-PDS which has problems with membrane trafficking due to misfolding.
If the cell-treated drug is a corrector for H723R-PDS, H723R-PDS will translocate normally to the plasma membrane.
At this time, when treated with a high-concentration iodide solution outside the cell, iodide enters the cell due to the Cl−/I− exchange activity of pendrin, and the fluorescence of the halide sensor YFP decreases.
PANC-1 cells were cultured in Dulbecco's Modified Eagle's Medium with 10% fetal bovine serum, 2 mM glutamine, 100 units/ml penicillin and 100 µg/ml streptomycin. For high-throughput screening, PANC-1 cells were stably transfected with human H723R-pendrin and halide sensor YFP-F46L/H148Q/I152L.
PANC-1 cells expressing human H723R-pendrin and YFP-F46L/H148Q/I152L were plated in 96-well microplates at a density of 2×10^4 cells per well and grown for 20-24 hours at 37° C. (90% humidity 5% CO2). Then these cells were treated with 50 μl growth medium containing test compounds and incubated for 20-24 hours. For YFP quenching assay, each well of the 96-well plate was washed 2 times with 200 μl of PBS, and it was filled with 50 μl of HEPES-buffered solution (140 mM NaCl, 5 mM KCl, 1 mM MgCl2, 1 mM CaCl2, 10 mM D-glucose, 10 mM HEPES; pH 7.4 with NaOH). After 10 minutes of incubation at 37° C., the 96-well plate was moved on the FLUOstar Omega Microplate Reader (BMG Labtech, Ortenberg, Germany) for a fluorescence assay. Each well was assayed individually for H723R-pendrin mediated I^− influx by recording fluorescence (495±15 nm excitation, 520±20 nm emission) every 400 ms for 1 second (baseline). Then, 50 μL of NaI-substituted HEPES-buffered solution (NaI replacing NaCl) was added using a liquid injector at 1 second and YFP fluorescence was recorded every 400 ms for 10 seconds. The initial iodide influx rate was determined from the initial slope of fluorescence by nonlinear regression, after the infusion of iodide.
It is indicated as EC50 with the following key: A=EC50 less than 5 uM; B=EC50 greater than 5 uM, but less than 10 uM; C=EC50 greater than 10 uM.
As a reminder, the EC50 is the concentration giving half of the maximal effect. High values mean a less potent agent, low ones a more potent agent. As to `COc1ccc(-c2cncc(C3=C(N)N(CC4CCC4)CC3=O)n2)cc1OC` [Compound 66], the EC50 fell in the range of 5 to 10 µM. In turn, `COc1ccc(-c2cncc(C3=C(N)N(c4ccccc4Cl)CC3=O)n2)cc1OC` [Compound 6] came in with a concentration for a half-maximal effect (EC50) of 5 to 10 µM. Consider `NC1=C(c2cncc(-c3ccc4nccnc4c3)n2)C(=O)CN1c1ccccc1Cl` [Compound 12], for which the concentration giving a half-maximal response (EC50) is more than 10 µM.

In turn, `NC1=C(c2cncc(-c3ccc(O)c(O)c3)n2)C(=O)CN1CC1CCOC1` (centres unmarked) [Compound 41] had an EC50 of more than 10 µM.

Compound `NC1=C(c2cncc(-c3ccc4nc[nH]c4c3)n2)C(=O)CN1c1ccccc1Cl` [Compound 34] registered a concentration for a half-maximal effect (EC50) of more than 10 µM. The same measure for `COc1cc(-c2cncc(C3=C(N)N(c4ccccc4Cl)CC3=O)n2)cnc1OC` [Compound 21]: more than 10 µM; for `COCCOc1cc(-c2cncc(C3=C(N)N(CC4CCCC4)CC3=O)n2)ccc1O` [Compound 99]: less than 5 µM; for `NC1=C(c2cncc(-c3ccc(O)c(OC4CC(N)C4)c3)n2)C(=O)CN1CC1CCCC1` (centres unmarked) [Compound 113]: more than 10 µM.

`COc1ccc(-c2cncc(C3=C(N)N(C4CCCC4)CC3=O)n2)cc1OC` [Compound 14] yielded an EC50 of 5 to 10 µM. `NC1=C(c2cnc(-c3ccc(O)c(O)c3)cn2)C(=O)CN1c1ccccc1Cl` [Compound 35] displayed an EC50 of more than 10 µM. For `NC1=C(c2ccc(-c3ccc(O)c(O)c3)nc2)C(=O)CN1c1ccccc1Cl` [Compound 59], the concentration for a half-maximal effect (EC50) is more than 10 µM.

`NC1=C(c2cncc(-c3ccc(O)cc3O)n2)C(=O)CN1c1ccccc1Cl` [Compound 30] came in with an EC50 of more than 10 µM. `NC1=C(c2cc(-c3ccc(O)c(O)c3)ncn2)C(=O)CN1c1ccccc1Cl` [Compound 72] returned an EC50 of more than 10 µM.

Compound `COc1ccc(-c2cncc(C3=C(N)N(c4cccc(Cl)c4Cl)CC3=O)n2)cc1OC` [Compound 63] displayed an EC50 of 5 to 10 µM.

In turn, `COc1cc(-c2cncc(C3=C(N)N(CC4CCOC4)CC3=O)c2)ccc1O` (centres unmarked) [Compound 91] registered an EC50 of more than 10 µM. Regarding `NC1=C(c2cncc(-c3cnc(O)c(O)c3)n2)C(=O)CN1c1ccccc1Cl` [Compound 38], the EC50 was more than 10 µM.

As to `COc1cc(-c2cncc(C3=C(N)N(CC4CCNC4)CC3=O)c2)ccc1O` (centres unmarked) [Compound 90], the EC50 is more than 10 µM.

`NC1=C(c2cncc(-c3ccc(O)c(O)c3)n2)C(=O)CN1CC1CC(F)(F)C1` [Compound 104] showed a half-maximal effective concentration (EC50) of 5 to 10 µM. The compound `CN1CCC(CN2CC(=O)C(c3cncc(-c4ccc(O)c(O)c4)n3)=C2N)C1` (centres unmarked) [Compound 53] gave an EC50 of more than 10 µM. `CC(C)CN1CC(=O)C(c2cncc(-c3ccc4c(c3)n(C)c(=O)n4C)n2)=C1N` [Compound 27] gave a 50% effective concentration (EC50) of more than 10 µM. The same measure for `NC1=C(c2ccnc(-c3ccc(O)c(O)c3)n2)C(=O)CN1c1ccccc1F` [Compound 57]: less than 5 µM.

In the case of `NC1=C(c2nccc(-c3ccc(O)c(O)c3)n2)C(=O)CN1CCC(F)(F)F` [Compound 97], the EC50 is more than 10 µM. With `NC1=C(c2nccc(-c3ccc(O)c(O)c3)n2)C(=O)CN1c1ccccc1F` [Compound 74], the EC50 was more than 10 µM.

With `COc1ccc(-c2cncc(C3=C(N)N(c4ccccc4OC)CC3=O)n2)cc1OC` [Compound 37], the EC50 was more than 10 µM. The same measure for `NC1=C(c2cncc(-c3ccc(O)c(O)c3)n2)C(=O)CN1c1ncncc1Cl` [Compound 120]: more than 10 µM; for `COc1ccc(-c2cncc(C3=C(N)N(CC4CCNC4)CC3=O)n2)cc1OC` (centres unmarked) [Compound 39]: more than 10 µM. For the compound `COc1ccc(-c2nccc(C3=C(N)N(CC4CCCC4)CC3=O)n2)cc1OC` [Compound 77], the EC50 is more than 10 µM.

In turn, `NC1=C(c2cncc(-c3ccc4ocnc4c3)n2)C(=O)CN1c1ccccc1Cl` [Compound 11] showed a 50% effective concentration (EC50) of more than 10 µM. The same measure for `NC1=C(c2ccnc(-c3ccc(O)c(O)c3)c2)C(=O)CN1CC1CCCC1` [Compound 109]: more than 10 µM.

For `CNc1ccc(-c2cncc(C3=C(N)N(c4ccccc4Cl)CC3=O)n2)cc1NC` [Compound 23], the half-maximal effective concentration (EC50) is more than 10 µM. `NC1=C(c2cccc(-c3ccc(O)c(O)c3)n2)C(=O)CN1c1ccccc1F` [Compound 92] registered an EC50 of 5 to 10 µM. Compound `COc1ccc(-c2cc(C3=C(N)N(c4ccccc4Cl)CC3=O)ncn2)cc1OC` [Compound 68] displayed a half-maximal effective concentration (EC50) of more than 10 µM. For `COc1ccc(-c2cncc(C3=C(N)N(c4ccccc4Cl)CC3=O)n2)cc1O` [Compound 29], the EC50 was more than 10 µM. `COc1ccc(-c2cncc(C3=C(N)N(c4ccccc4Cl)CC3=O)c2)cc1OC` [Compound 7]: the concentration giving a half-maximal response (EC50) was more than 10 µM. `COc1ccc(-c2cccc(C3=C(N)N(CC4CCNC4)CC3=O)n2)cc1OC` (centres unmarked) [Compound 85] gave an EC50 of more than 10 µM. Under `NC1=C(c2cncc(-c3ccc(O)c(OC4COC4)c3)n2)C(=O)CN1CC1CCC1` [Compound 112] stands 5 to 10 µM; under `COC1CC(Oc2cc(-c3cncc(C4=C(N)N(CC5CCCC5)CC4=O)n3)ccc2O)C1` (centres unmarked) [Compound 118], more than 10 µM; under `NC1=C(c2ccnc(-c3ccc(O)c(O)c3)n2)C(=O)CN1c1ccccc1Cl` [Compound 114], less than 5 µM. In the case of `CNCCOc1cc(-c2cncc(C3=C(N)N(CC4CCCC4)CC3=O)n2)ccc1O` [Compound 107], the 50% effective concentration (EC50) is less than 5 µM.

Compound `COc1ccc(-c2cncc(C3=C(N)N(CC4CCN(C)C4)CC3=O)n2)cc1OC` (centres unmarked) [Compound 52] yielded an EC50 of more than 10 µM. Compound `NC1=C(c2cncc(-c3ccc(O)c(OC4CNC4)c3)n2)C(=O)CN1CC1CCCC1` [Compound 89] yielded an EC50 of more than 10 µM. The same measure for `COc1cc2c(cc1OC)CN(c1cncc(C3=C(N)N(c4ccccc4Cl)CC3=O)n1)CC2` [Compound 16]: more than 10 µM. The same measure for `COc1cc(OC)cc(-c2cncc(C3=C(N)N(c4ccccc4Cl)CC3=O)n2)c1` [Compound 22]: more than 10 µM; for `COc1ccc(-c2cnc(C3=C(N)N(c4ccccc4F)CC3=O)nc2)cc1OC` [Compound 2]: more than 10 µM. The compound `COc1ccc(-c2cccc(C3=C(N)N(c4ccccc4F)CC3=O)n2)cc1OC` [Compound 3] had an EC50 of more than 10 µM. Compound `COc1ccc(-c2cncc(C3=C(N)N(CC4CCCC4)CC3=O)n2)cc1OC` [Compound 15] showed a concentration giving a half-maximal response (EC50) of 5 to 10 µM. Consider `NC1=C(c2cccc(-c3ccc(O)c(O)c3)n2)C(=O)CN1CC1CCNC1` (centres unmarked) [Compound 86], for which the EC50 is more than 10 µM. On to `COc1ccc(-c2cncc(C3=C(N)N(CC4CCNC4)CC3=O)c2)cc1OC` (centres unmarked) [Compound 55], for which the EC50 was more than 10 µM. On to `COc1ccc(-c2cc(C3=C(N)N(CC4CCCC4)CC3=O)ccn2)cc1OC` [Compound 108], for which the concentration for a half-maximal effect (EC50) was more than 10 µM. Compound `COc1ccc(-c2nccc(C3=C(N)N(c4ccccc4Cl)CC3=O)n2)cc1OC` [Compound 98] gave an EC50 of more than 10 µM.

Consider `COc1ccc(-c2cncc(C3=C(N)N(CC4CCCCC4)CC3=O)n2)cc1OC` [Compound 48], for which the concentration giving a half-maximal response (EC50) is more than 10 µM. The compound `NC1=C(c2ccnc(-c3ccc(O)c(O)c3)c2)C(=O)CN1c1ccccc1F` [Compound 101] returned a concentration for a half-maximal effect (EC50) of more than 10 µM. Compound `NC1=C(c2cncc(-c3ccc(O)c(O)c3)n2)C(=O)CN1CC1CCNC1` (centres unmarked) [Compound 40] showed an EC50 of more than 10 µM.
